{"source": "patent US10377770B2", "about": "(Novartis AG, priority 2015, dated 2019)", "data": [{"molecular_target": "C-Raf FL (full length CRAF with Y340E and Y341E activating mutations, co-expressed with h14-3-3 zeta) (Homo sapiens (Human), UniProt P04049, Y340E/Y341E)", "sequence (P04049 whole entry Y340E/Y341E)": "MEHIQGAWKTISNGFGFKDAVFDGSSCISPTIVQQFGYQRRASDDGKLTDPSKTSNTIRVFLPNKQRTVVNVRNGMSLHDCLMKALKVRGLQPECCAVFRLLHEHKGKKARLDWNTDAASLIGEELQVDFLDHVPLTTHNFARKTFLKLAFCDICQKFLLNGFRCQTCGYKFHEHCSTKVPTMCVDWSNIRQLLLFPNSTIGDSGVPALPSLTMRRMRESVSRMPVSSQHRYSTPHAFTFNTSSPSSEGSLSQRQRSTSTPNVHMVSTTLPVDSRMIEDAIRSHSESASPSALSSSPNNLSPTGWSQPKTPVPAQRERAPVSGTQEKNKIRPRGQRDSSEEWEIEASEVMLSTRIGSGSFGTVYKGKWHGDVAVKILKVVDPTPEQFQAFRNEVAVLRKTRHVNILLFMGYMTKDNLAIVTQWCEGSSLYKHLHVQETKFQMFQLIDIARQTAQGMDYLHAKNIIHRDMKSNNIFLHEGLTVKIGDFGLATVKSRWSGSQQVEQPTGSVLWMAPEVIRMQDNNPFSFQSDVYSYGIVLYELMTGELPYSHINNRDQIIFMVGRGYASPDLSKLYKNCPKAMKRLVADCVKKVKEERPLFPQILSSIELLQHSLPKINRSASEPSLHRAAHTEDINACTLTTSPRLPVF", "sequence (P63104 whole entry partner)": "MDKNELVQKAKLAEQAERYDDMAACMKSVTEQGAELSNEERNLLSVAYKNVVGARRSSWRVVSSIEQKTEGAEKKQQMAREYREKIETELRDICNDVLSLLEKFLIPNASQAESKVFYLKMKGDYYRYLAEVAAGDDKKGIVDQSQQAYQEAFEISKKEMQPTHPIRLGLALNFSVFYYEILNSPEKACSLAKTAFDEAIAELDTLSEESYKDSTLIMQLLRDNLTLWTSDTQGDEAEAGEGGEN", "assay": "In vitro Raf activity determination, AlphaScreen p-MEK readout, c-Raf (C-Raf FL)", "format": "biochemical", "conditions": "c-Raf approximately 4 nM, ATP 1 μM, pre-incubation 60 minutes, reaction 1 hour", "source_text": "Sf9 cells co-expressing both proteins were lysed and subjected to immobilized nickel chromatography and eluted with Imidazole. A second column (StrepII binding column) was used and eluted with desthiobiotin. Protein Tags were removed using Prescission enzyme and the protein was further purified using a flowthrough step to remove tags.\nC-Raf TR refers to a truncated C-Raf protein, a Δ1-324 deletion mutant. C-Raf FL refers to the full-length C-Raf protein.\nFull length MEK1 with an inactivating K97R ATP binding site mutation is utilized as a RAF substrate. The MEK1 cDNA was subcloned with an N-terminal (his)6 tag into a vector for E. Coli expression. The MEK1 substrate was purified from E. Coli lysate by nickel affinity chromatography followed by anion exchange. The final MEK1 preparation was biotinylated (Pierce EZ-Link Sulfo-NHS-LC-Biotin) and concentrated.\nAssay Materials: Assay buffer is 50 mM Tris, pH 7.5, 15 mM MgCl2, 0.01% Bovine Serum Albumin (BSA) and 1 mM dithiothreitol (DTT); Stop buffer is 60 mM ethylenediaminetetraacetic acid (EDTA) and 0.01% Tween® 20; b-Raf (V600E), active; biotinylated Mek, kinase dead; Alpha Screen detection kit (available from PerkinElmer™, #6760617R); Anti phospho-MEK1/2 (available from Cell Signaling Technology, Inc. #9121); 384 well low volume assay plates (White Greiner® plates).\nAssay conditions: b-Raf (V600E) approximately 4 pM; c-Raf approximately 4 nM; biotinylated Mek, kinase dead approximately 10 nM; ATP 10 μM for BRAF (V600E) and 1 μM for CRAF; Pre-incubation time with compounds 60 minutes at room temperature; Reaction time 1 or 3 hours at room temperature.\nAssay protocol: Raf and biotinylated Mek (kinase dead) were combined at 2× final concentrations in assay buffer (50 mM Tris, pH 7.5, 15 mM MgCl2, 0.01% BSA and 1 mM DTT) and dispensed […] per well in assay plates (Greiner white 384 well assay plates #781207) containing […] of 40× of a Raf kinase inhibitor test compound diluted in 100% DMSO. The plate was incubated for 60 minutes at room temperature. The Raf kinase activity reaction was started by the addition of […] per well of 2×ATP diluted in assay buffer. After 3 hours (b-Raf(V600E)) or 1 hour (c-Raf). The reactions were stopped and the phosphorylated product was measured using a rabbit anti-p-MEK (Cell Signaling, #9121) antibody and the Alpha Screen IgG (ProteinA) detection Kit (PerkinElmer #6760617R), by the addition of […] to the well of a mixture of the antibody (1:2000 dilution) and detection beads (1:2000 dilution of both beads) in Stop/bead buffer (25 mM EDTA, 50 mM Tris, pH 7.5, 0.01% Tween20). The additions were carried out under dark conditions to protect the detection beads from light. A lid was placed on top of the plate and incubated for 1 hour at room temperature, after which the luminescence was read on a PerkinElmer Envision instrument.", "units": {"IC50": "nM"}, "values": [{"smiles": "CCNC(=O)C1Cc2ccc(-c3cc(NC(=O)c4ccnc(C(C)(F)F)c4)ccc3C)cc2N2CCOCC12", "note": "(racemic) [Example 74, (rac)-9-(5-(2-(1,1-difluoroethyl)isonicotinamido)-2-methylphenyl)-N-ethyl-1,2,4,4a,5,6-hexahydro-[1,4]oxazino[4,3-a]quinoline-5-carboxamide]", "IC50": 0.28}, {"smiles": "CCNC(=O)C1Cc2ccc(-c3cc(NC(=O)c4cccc(C(F)(F)F)c4)cnc3C)cc2N2CCOCC12", "note": "(racemic) [Example 75, (rac)-N-ethyl-9-(2-methyl-5-(3-(trifluoromethyl)benzamido)pyridin-3-yl)-1,2,4,4a,5,6-hexahydro-[1,4]oxazino[4,3-a]quinoline-5-carboxamide]", "IC50": 0.48}, {"smiles": "Cc1ccc(NC(=O)c2ccnc(C(C)(F)F)c2)cc1-c1ccc2c(c1)N1CCOCC1C(F)(CO)C2", "note": "(racemic) [Example 78, (rac)-2-(1,1-difluoroethyl)-N-(3-(5-fluoro-5-(hydroxymethyl)-1,2,4,4a,5,6-hexahydro-[1,4]oxazino[4,3-a]quinolin-9-yl)-4-methylphenyl)isonicotinamide]", "IC50": 0.02}, {"smiles": "Cc1ncc(NC(=O)c2ccnc(C(C)(F)F)c2)cc1-c1ccc2c(c1)N1CCOCC1C(F)(CO)C2", "note": "(racemic) [Example 79, (rac)-2-(1,1-difluoroethyl)-N-(5-(5-fluoro-5-(hydroxymethyl)-1,2,4,4a,5,6-hexahydro-[1,4]oxazino[4,3-a]quinolin-9-yl)-6-methylpyridin-3-yl)isonicotinamide]", "IC50": 0.038}, {"smiles": "Cc1ncc(NC(=O)c2ccnc(C(C)(F)F)c2)cc1-c1ccc2c(c1)N1CCOC[C@H]1[C@](C)(C#N)C2", "note": "(racemic) [Example 87, (rac)-N-(5-(5-cyano-5-methyl-1,2,4,4a,5,6-hexahydro-[1,4]oxazino[4,3-a]quinolin-9-yl)-6-methylpyridin-3-yl)-2-(1,1-difluoroethyl)isonicotinamide]", "IC50": 0.022}, {"smiles": "Cc1ccc(NC(=O)c2ccnc(C(C)(F)F)c2)cc1-c1ccc2c(c1)N1CCOC[C@H]1[C@@](C)(C#N)C2", "note": "(racemic) [Example 88, (rac)-N-(3-(5-cyano-5-methyl-1,2,4,4a,5,6-hexahydro-[1,4]oxazino[4,3-a]quinolin-9-yl)-4-methylphenyl)-2-(1,1-difluoroethyl)isonictinamide]", "IC50": 0.032}, {"smiles": "Cc1ncc(NC(=O)c2ccnc(C(C)(F)F)c2)cc1-c1ccc2c(c1)N1CCOC[C@H]1[C@@](C)(C#N)C2", "note": "(racemic) [Example 89, (rac)-N-(5-(5-cyano-5-methyl-1,2,4,4a,5,6-hexahydro-[1,4]oxazino[4,3-a]quinolin-9-yl)-6-methylpyridin-3-yl)-2-(1,1-difluoroethyl)isonicotinamide]", "IC50": 0.036}, {"smiles": "Cc1ccc(NC(=O)c2ccnc(C(C)(F)F)c2)cc1-c1ccc2c(c1)N1CCOC[C@H]1[C@H](C#N)C2", "note": "(racemic) [Example 90, (rac)-N-(3-(5-cyano-1,2,4,4a,5,6-hexahydro-[1,4]oxazino[4,3-a]quinolin-9-yl)-4-methylphenyl)-2-(1,1-difluoroethyl)isonicotinamid]", "IC50": 0.023}, {"smiles": "Cc1ncc(NC(=O)c2ccnc(C(C)(F)F)c2)cc1-c1ccc2c(c1)N1CCOC[C@H]1[C@H](C#N)C2", "note": "(racemic) [Example 91, (rac)-N-(5-(5-cyano-1,2,4,4a,5,6-hexahydro-[1,4]oxazino[4,3-a]quinolin-9-yl)-6-methylpyridin-3-yl)-2-(1,1-difluoroethyl)isonicotinamide]", "IC50": 0.076}, {"smiles": "Cc1ccc(NC(=O)c2ccnc(C(C)(F)F)c2)cc1-c1ccc2c(c1)N1CCOC[C@H]1[C@](C)(N)C2", "note": "(racemic) [Example 92, (rac)-(syn)-N-(3-(5-amino-5-methyl-1,2,4,4a,5,6-hexahydro-[1,4]oxazino[4,3-a]quinolin-9-yl)-4-methylphenyl)-2-(1,1-difluoroethyl)isonicotinamide]", "IC50": 0.61}, {"smiles": "Cc1ccc(NC(=O)c2ccnc(C(C)(F)F)c2)cc1-c1ccc2c(c1)N1CCOC[C@H]1[C@@](C)(N)C2", "note": "(racemic) [Example 93, (rac)-(anti)-N-(3-(5-amino-5-methyl-1,2,4,4a,5,6-hexahydro-[1,4]oxazino[4,3-a]quinolin-9-yl)-4-methylphenyl)-2-(1,1-difluoroethyl)isonicotinamide]", "IC50": 0.025}, {"smiles": "Cc1ccc(NC(=O)c2ccnc(C(F)(F)F)c2)cc1-c1cc2n(c(=O)c1)CCC1COCCN21", "note": "(racemic) [Example 94, (rac)-N-(4-methyl-3-(8-oxo-2,4,4a,5,6,8-hexahydro-1H-pyrido[2′,1′:2,3]pyrimido[6,1-c][1,4]oxazin-10-yl)phenyl)-2-(trifluoromethyl)isonicotinamide]", "IC50": 0.019}, {"smiles": "Cc1ncc(NC(=O)c2ccnc(C(C)(F)F)c2)cc1-c1ccc2c(c1)N1CCOCCC1CC2O", "note": "(racemic) [Example 96, (rac)-2-(1,1-difluoroethyl)-N-(5-(7-hydroxy-1,2,5,5a,6,7-hexahydro-4H-[1,4]oxazepino[4,5-a]quinolin-10-yl)-6-methylpyridin-3-yl)isonicotinamide]", "IC50": 0.053}, {"smiles": "Cc1ccc(NC(=O)c2ccnc(C(C)(F)F)c2)cc1-c1ccc2c(c1)N1CCOC[C@@H]1[C@@H](C(=O)O)C2", "note": "(racemic) [Example 100, (rac)-(cis)-9-(5-(2-(1,1-difluoroethyl)isonicotinamido)-2-methylphenyl)-1,2,4,4a,5,6-hexahydro-[1,4]oxazino[4,3-a]quinoline-5-carboxylic Acid]", "IC50": 0.037}, {"smiles": "Cc1ccc(NC(=O)c2ccnc(C(F)(F)F)c2)cc1-c1cnc2c(c1)N1CCOC[C@H]1C[C@@H]2O", "note": "(racemic) [Example 101, rac-cis-N-(3-(6-hydroxy-1,2,4,4a,5,6-hexahydro-[1,4]oxazino[4,3-a][1,5]naphthyridin-9-yl)-4-methylphenyl)-2-(trifluoromethyl)isonicotinamide]", "IC50": 0.026}, {"smiles": "Cc1ncc(NC(=O)c2cccc(C(F)(F)F)c2)cc1-c1cnc2c(c1)N1CCOC[C@H]1C[C@@H]2O", "note": "(racemic) [Example 104, rac-cis-N-(5-(6-Hydroxy-1,2,4,4a,5,6-hexahydro-[1,4]oxazino[4,3-a][1,5]naphthyridin-9-yl)-6-methylpyridin-3-yl)-3-(trifluoromethyl)benzamide]", "IC50": 0.044}, {"smiles": "Cc1ccc(NC(=O)c2ccnc(C(C)(F)F)c2)cc1-c1cnc2c(c1)N1CCOCC1CC2O", "note": "(racemic) [Example 107, rac-cis-2-(1,1-Difluoroethyl)-N-(3-(6-hydroxy-1,2,4,4a,5,6-hexahydro-[1,4]oxazino[4,3-a][1,5]naphthyridin-n-9-yl)-4-methylphenyl)isonicotinamide]", "IC50": 0.019}, {"smiles": "Cc1ccc(NC(=O)c2ccnc(C(F)(F)F)c2)cc1-c1cnc2c(c1)N1CCOCC1CC2=O", "note": "(racemic) [Example 110, rac-N-(4-methyl-3-(6-oxo-1,2,4,4a,5,6-hexahydro-[1,4]oxazino[4,3-a][1,5]naphthyridin-n-9-yl)phenyl)-2-(trifluoromethyl)isonicotinamide]", "IC50": 0.002}, {"smiles": "Cc1ccc(NC(=O)c2ccnc(C(F)(F)F)c2)cc1-c1cnc2c(c1)N1CCOCC1CC2(F)F", "note": "(racemic) [Example 111, rac-N-(3-(6,6-Difluoro-1,2,4,4a,5,6-hexahydro-[1,4]oxazino[4,3-a][1,5]naphthyridin-9-yl)-4-methylphenyl)-2-(trifluoromethyl)isonicotinamide]", "IC50": 0.0054}, {"smiles": "Cc1ccc(NC(=O)c2ccnc(C(F)(F)F)c2)cc1-c1cnc2c(c1)N1CCOCC1C(=O)N2", "note": "(racemic) [Example 112, rac-N-(4-Methyl-3-(5-oxo-1,2,4,4a,5,6-hexahydropyrido[2′,3′:5,6]pyrazino[2,1-c][1,4]oxazin-9-yl)phenyl)-2-(trifluoromethyl)isonicotinamide]", "IC50": "< 0.0017"}, {"smiles": "CCN1C(=O)C2COCCN2c2cc(-c3cc(NC(=O)c4ccnc(C(F)(F)F)c4)ccc3C)cnc21", "note": "(racemic) [Example 113, rac-N-(3-(6-Ethyl-5-oxo-1,2,4,4a,5,6-hexahydropyrido[2′,3′:5,6]pyrazino[2,1-c][1,4]oxazin-9-yl)-4-methylphenyl)-2-(trifluoromethyl)isonicotinamide]", "IC50": 0.0084}]}]}
